# According to patent publication US6013649A, “Thiol sulfone metalloprotease inhibitors” (Monsanto Company, priority 1997, dated 2000):
# Columns and labels:
# hMMP 13 = molecular target: T1, hMMP 13 (Homo sapiens, UniProt P45452); assay: In vitro metalloprotease inhibition, fluorogenic peptide substrate (recombinant human MMP-13, APMA activated); type: biochemical; settings: recombinant human MMP-13, room temperature, pH 7.5, 4 μM substrate
# T1 construct: made in house
# Description: (§1) Briefly, 4-aminophenylmercuric acetate (APMA) or trypsin activated MMPs were incubated with various concentrations of the inhibitor compound at room temperature for 5 minutes (0.02% 2-mercaptoethanol added to buffer for thiol compounds with 5 minutes or overnight incubation).
# (§2) More specifically, recombinant human MMP-13 and MMP-1 enzymes were prepared in laboratories of the assignee. MMP-13 was expressed in baculovirus as a proenzyme, and purified first over a heparin agarose column and then over a chelating zinc chloride column. The proenzyme was activated by APMA for use in the assay. MMP-1 expressed in transfected HT-1080 cells was provided by Dr. Howard Welgus of Washington University, St. Louis, Mo. The enzyme was also activated using APMA and was then purified over a hydroxamic acid column.
# (§3) The enzyme substrate is a methoxycoumarin-containing polypeptide having the following sequence:
# (§4) MCA-ProLeuGlyLeuDpaAlaArgNH^2, wherein MCA is methoxycoumarin and Dpa is 3-(2,4--dinitrophenyl)-L-2,3-diaminopropionyl alanine.
# (§5) Assays were carried out at room temperature, and dimethyl sulfoxide (DMSO) at a final concentration of 1 percent was used to dissolve inhibitor compound.
# (§6) The assayed inhibitor compound in DMSO/buffer solution was compared to an equal amount of DMSO/buffer with no inhibitor as control using Microfluor™ White Plates (Dynatech). The inhibitor or control solution was maintained in the plate for 10 minutes and the substrate was added to provide a final concentration of 4 μM.
# (§7) Inhibition was measured as a reduction in fluorescent intensity as a function of inhibitor concentration, using a Perkin Elmer L550 plate reader. The IC50 values were calculated from those values.
# hMMP 1 = molecular target: T2, hMMP 1 (Homo sapiens, UniProt P03956); assay: In vitro metalloprotease inhibition, fluorogenic peptide substrate (recombinant human MMP-1, APMA activated); type: biochemical; settings: human MMP-1, room temperature, pH 7.5, 4 μM substrate
# T2 construct: host or cells: transfected HT-1080 cells
# T2 sequence (P03956 100-469): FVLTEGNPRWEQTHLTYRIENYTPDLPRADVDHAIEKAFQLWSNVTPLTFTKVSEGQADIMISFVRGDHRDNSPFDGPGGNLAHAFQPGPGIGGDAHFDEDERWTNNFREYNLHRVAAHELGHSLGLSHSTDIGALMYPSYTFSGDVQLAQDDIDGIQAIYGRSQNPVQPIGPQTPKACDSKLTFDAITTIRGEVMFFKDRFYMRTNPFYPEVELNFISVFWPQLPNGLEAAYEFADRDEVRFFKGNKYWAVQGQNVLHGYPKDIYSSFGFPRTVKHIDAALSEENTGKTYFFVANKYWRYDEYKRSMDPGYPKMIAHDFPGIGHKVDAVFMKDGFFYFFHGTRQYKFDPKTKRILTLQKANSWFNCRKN
# Description: as §1, §2, §3, §4, §5, §6, §7
# [1] = tested on: neovascularization of the corneal stroma; assay: In vivo angiogenesis assay (corneal micropocket assay, bFGF pellet); design: species or system mouse (C57Bl/6 female); settings: 50 mg/kg bid, po, day five, mouse cornea
# Description: The study of angiogenesis depends on a reliable and reproducible model for the stimulation and inhibition of a neovascular response. The corneal micropocket assay provides such a model of angiogenesis in the cornea of a mouse. See, A Model of Angiogenesis in the Mouse Cornea; Kenyon, BM, et al., Investigative Ophthalmology & Visual Science, July 1996, Vol. 37, No. 8.
# In this assay, uniformly sized Hydron™ pellets containing bFGF and sucralfate were prepared and surgically implanted into the stroma mouse cornea adjacent to the temporal limbus. […]
# Mice were dosed on a daily basis for the duration of the assay. […] At day five, the degree of angiogenic inhibition was scored by viewing the neovascular progression with a slit lamp microscope.
# The mice were anesthetized and the studied eye was once again proptosed. The maximum vessel length of neovascularization, extending from the limbal vascular plexus toward the pellet was measured. In addition, the contiguous circumferential zone of neovascularization was measured as clock hours, where 30 degrees of arc equals one clock hour. The area of angiogenesis was calculated as follows. […]
# The studied mice were thereafter compared to control mice and the difference in the area of neovascularization was recorded.
IC50 (hMMP 13),IC50 (hMMP 1),Structure (SMILES),inhibition (difference in area of neovascularization vs control mice) [1]
0.015 µM,4 µM,"COC(=O)C(S)CCS(=O)(=O)c1ccc(OC)cc1 (racemic) [Example 10, (R,S)-Methyl-4-[(4-methoxyphenyl)sulfonyl]-2-mercaptobutanoate]",–
1.3 µM,> 10 µM,"CCCC[C@]1(S(=O)(=O)c2ccc(OC)cc2)CCC[C@@H](S)C1 [Example 8, (R,S)3-butyl-3-[(4-methoxyphenyl)sulfonyl]cyclohexanethiol]",–
0.048 µM,3.5 µM,"COc1ccc(S(=O)(=O)CCC(S)c2ccccc2)cc1 (stereo not drawn) [Example 24, 3-[(4-methoxyphenyl)sulfonyl]-1-phenylpropane-1-thiol]",–
0.17 µM,> 10 µM,"O=S(=O)(CCCS)c1ccc(-c2ccccc2)cc1 [Example 37, 3-[(4-phenyl)phenylsulfonyl]propane-1-thiol]",–
0.07 µM,8 µM,"COc1ccc(S(=O)(=O)CCCS)cc1 [Example 13, 3-[(4-methoxyphenyl)sulfonyl]propane-1-thiol]",–
0.2 µM,7 µM,"COc1ccc(S(=O)(=O)C(C)CCS)cc1 (stereo not drawn) [Example 19, 3-[(4-methoxyphenyl)sulfonyl]-butane-1-thiol]",–
0.5 µM,–,COc1ccc(S(=O)(=O)C2CCC(S)C2)cc1 (stereo not drawn) [Example 9],–
1 µM,> 10 µM,"O=S(=O)(CCCS)c1ccc(OCCCc2ccccc2)cc1 [Example 4, 3-[(4-{3-phenylpropyloxy)phenyl}sulfonyl]-propanethiol]",–
0.4 µM,> 10 µM,CC(C)(C)OC(=O)COc1ccc(S(=O)(=O)CCCS)cc1 [Example 5],–
–,> 10 µM,"O=S(=O)(c1ccc(Sc2ccccc2)cc1)[C@@H]1CCC[C@@H](S)C1 (relative stereo) [Example 38, (R,S)trans-3-[(phenylthio)phenylsulfonyl]cyclohexanethiol]",–
0.9 µM,> 10 µM,"O=S(=O)(CCCS)c1ccccc1 [Example 30, 3-(phenylsulfonyl)propane-1-thiol]",–
0.042 µM,0.9 µM,"COc1ccc(S(=O)(=O)CC(CS)NC(=O)CNC(=O)OCc2ccccc2)cc1 (racemic) [Example 33, 2-R,S-(N-carbobenzyloxy-glycyl)amino-3-(4-methoxybenzenesulfonyl)propanethiol]",–
0.007 µM,1.5 µM,"CCCC(CCS)S(=O)(=O)c1ccc(OC)cc1 (stereo not drawn) [Example 20, 3-[(4-methoxyphenyl)sulfonyl]hexane-1-thiol]",–
> 10 µM,> 10 µM,O=C(O)COc1ccc(S(=O)(=O)CCCS)cc1 [Example 6],–
–,0.06 µM,"COc1ccc(S(=O)(=O)C(CCS)Cc2ccccc2)cc1 (stereo not drawn) [Example 18, 3-[(4-methoxyphenyl)sulfonyl]-4-phenylbutane-1-thiol]",–
0.035 µM,4.75 µM,CNC(=O)CC(CCS)S(=O)(=O)c1ccc(OC)cc1 (stereo not drawn) [Example 31],–

IC50 (hMMP 13),IC50 (hMMP 1),Structure (SMILES),inhibition (difference in area of neovascularization vs control mice) [1]
0.2 µM,8 µM,"COc1ccc(S(=O)(=O)CCS)cc1 [Example 34, 1-[(4-methoxyphenyl)sulfonyl]ethane-2-thiol]",–
0.21 µM,> 10 µM,"CCCCCCCCCC(CCS)S(=O)(=O)c1ccc(OC)cc1 (stereo not drawn) [Example 17, 3-[(4-methoxyphenyl)sulfonyl]-dodecane-1-thiol]",–
0.033 µM,8 µM,"COc1ccc(S(=O)(=O)CCC(C)S)cc1 (racemic) [Example 2, (R,S)-4-[(4-methoxyphenyl)-sulfonyl]butane-2-thiol]",–
0.0005 µM,1.1 µM,"CCCCCC(CCS)S(=O)(=O)c1ccc(OC)cc1 (stereo not drawn) [Example 22, 3-[(4-methoxyphenyl)sulfonyl]-octane-1-thiol]",–
–,1 µM,"COc1ccc(S(=O)(=O)[C@@H]2CCC[C@@H](S)C2)cc1 (relative stereo) [Example 7, (R,S)trans-3-[(4-methoxyphenyl)sulfonyl]cyclohexanethiol]",–
0.19 µM,6.5 µM,"COc1ccc(S(=O)(=O)C[C@H](C)CS)cc1 [Example 14, 3-[(4-methoxyphenyl)sulfonyl]-2R-methylpropane-1-thiol]",–
0.0002 µM,0.37 µM,O=C(NCCN1CCOCC1)C(S)CCS(=O)(=O)c1ccc(Oc2ccccc2)cc1 (stereo not drawn) [Example 39],51%
> 10 µM,> 10 µM,"COc1ccc(CS(=O)(=O)CCCS)cc1 [Example 11, (R,S)-3-[(4-methoxybenzyl)-sulfonyl]propane thiol]",–
0.07 µM,4 µM,"COc1ccc(S(=O)(=O)CC(CS)NC(C)=O)cc1 (stereo not drawn) [Example 32, N-[1-(mercaptomethyl)-2-[(4-methoxyphenyl)sulfonyl)ethyl)acetamide]",–
0.055 µM,10 µM,"CCCOc1ccc(S(=O)(=O)CCCS)cc1 [Example 29, 3-[(4-propoxyphenyl)sulfonyl]propanethiol]",–
0.004 µM,0.6 µM,"CCC(CCS)S(=O)(=O)c1ccc(OC)cc1 (stereo not drawn) [Example 16, 3-[(4-methoxyphenyl)sulfonyl]-pentane-1-thiol]",–
0.7 µM,> 10 µM,"COc1ccc(S(=O)(=O)CCCCS)cc1 [Example 25, 4-[(4--methoxyphenyl)sulfonyl]butane-1-thiol]",–
0.7 µM,–,"COc1ccc(S(=O)(=O)CC(C)(C)CS)cc1 [Example 15, 3-[(4-methoxyphenyl)sulfonyl]-2,2-dimethylpropane-1-thiol]",–
–,> 10 µM,"COc1ccc(S(=O)(=O)C[C@@H](C)CS)cc1 [Example 3, 3-[(4-methoxyphenyl)sulfonyl]-2(S)-methylpropanethiol]",–
0.4 µM,4 µM,"COc1ccc(S(=O)(=O)CC(C)S)cc1 (racemic) [Example 1, (R,S)1-[(4-methoxyphenyl)-sulfonyl]propane-2-thiol]",–
0.0006 µM,2.4 µM,"O=S(=O)(CCCS)c1ccc(Oc2ccccc2)cc1 [Example 36, 3-[(4-phenoxy)phenylsulfonyl]propane-1-thiol]",–

Structure (SMILES),IC50 (hMMP 13),IC50 (hMMP 1),inhibition (difference in area of neovascularization vs control mice) [1]
"CCCCOc1ccc(S(=O)(=O)C(CCS)Cc2ccccc2)cc1 (stereo not drawn) [Example 28, 3-[(4-butoxyphenyl)sulfonyl]-4-phenylbutane-1-thiol]",0.0015 µM,9 µM,–
"CCCCOc1ccc(S(=O)(=O)CCCS)cc1 [Example 27, 3-[(4-butoxyphenyl)sulfonyl]propane-1-thiol]",0.04 µM,> 10 µM,–
